Tested on: opiate receptor
Assay: Specific binding affinity of radio-iodinated peaks for the opiate receptor
Settings: monoiodinated (first peak) compared with diiodinated (second peak) compound
Description: The material comprising this peak was applied to a Sephadex 2-(diethylamino)ethyl ether column and eluted with sodium borate buffer (12.5 mM, pH 9.0, 0.1 N sodium chloride).

CC(C)C[C@H](NC(=O)[C@H](Cc1ccccc1)NC(=O)CNC(=O)[C@@H](C)NC(=O)[C@@H](N)Cc1ccc(O)c([125I])c1)C(=O)O [material of the first peak, H.Tyr(3-^125 I).D-Ala.Gly.Phe.Leu.OH]
specific binding affinity (for the opiate receptor): greater specific binding affinity (for the opiate receptor) than that of the second peak
